Laboratory results as given in patent EP0368175A1, “3S,7S-3-(Morpholinocarbonyl)-5-(2-chlorphenyl)-7,10-dimethyl-3,4-dihydro-2H,7H-cyclopenta[4,5]thieno[3,2-f][1,2,4]triazolo[4,3-a][1,4]diazepine” (BOEHRINGER INGELHEIM KG, priority 1988, dated 1990).
Like-named read-outs stand apart in the source and are kept apart here.

Target: T1, PAF-Rezeptor (Homo sapiens, UniProt P25105)
T1 construct: endogenous in cells; host or cells: intact human platelets from blood of healthy donors, purified on Sepharose CL-2B
Test: [^3H]PAF receptor binding on vital human platelets
Method: [^3H]PAF-Rezeptor-Bindung an vitalen humanen Blutplättchen
Bestimmt wird die konkurrierende Wechselwirkung von Prüfsubstanzen (hier PAF-Antagonisten) mit der bekannten Wechselwirkung des Radioliganden [^3H]PAF zum gleichen Rezeptor.
Die Bindungsstudien wurden an vitalem menschlichen Thrombozyten vorgenommen. Blutproben von gesunden Spendern wurden mit ACD-Puffer verdünnt und zentrifugiert (15 Min., 160 x g). Das blättchenreiche Plasma wird durch Chromatographie an Sepharose CL-2B [Zum Eluieren: HEPES-Puffer, pH 7,4 20° C] gereinigt.
Definierte Mengen [z.B. 800 µl] der Blättchensuspension wurden 90 Min. bei Raumtemperatur inkubiert, d.h. vermischt mit: • a) einer […] [^3H]PAF-Lösung, verdünnt mit Puffer. • b) mit einer 30 p molaren [^3H] PAF-Lösung, die gleichzeitig eine u.-molare (nicht markierte) PAF-Lösung enthält, • c) mit der 30 pmolaren [^3H]PAF-Lösung und den Lösungen der Prüfsubstanzen (unterschiedliche Konzentrationen) • a) Dient zur Ermittlung der totalen Bindung, • b) Dient zur Ermittlung der unspezifischen Bindung.
Die Reaktion wurde durch Vakuumfiltration abgestoppt. Die Filter mit den Blutplättchen werden mit Scintilationsflüssigkeit versetzt und die verbliebene Radioaktivität in einem Counter gemessen. Die spezifische Bindung ergibt sich aus totaler Bindung minus unspezifischer Bindung. Man bestimmt entweder die ICso-Werte (d.h. jene Konzentration der Prüfsubstanz, die 50 % des Radioliganden - hier [^3H] PAF - vom Rezeptor verdrängt), und gibt diese an. Oder errechnet hieraus die Ki-Werte. Dies kann computerunterstützt durch ein Iterationsverfahren der Bindungskurven geschehen. ICso- bzw. Ki-Werte sind ein Maß für die Rezeptoraffinität der Testsubstanz. Kleinere Werte zeigen die höhere Affinität an.

[1] = four separated isomers of Example 9d, read-out: [^3H]PAF-Bindung (Ki)

T1 sequence (P25105 whole entry): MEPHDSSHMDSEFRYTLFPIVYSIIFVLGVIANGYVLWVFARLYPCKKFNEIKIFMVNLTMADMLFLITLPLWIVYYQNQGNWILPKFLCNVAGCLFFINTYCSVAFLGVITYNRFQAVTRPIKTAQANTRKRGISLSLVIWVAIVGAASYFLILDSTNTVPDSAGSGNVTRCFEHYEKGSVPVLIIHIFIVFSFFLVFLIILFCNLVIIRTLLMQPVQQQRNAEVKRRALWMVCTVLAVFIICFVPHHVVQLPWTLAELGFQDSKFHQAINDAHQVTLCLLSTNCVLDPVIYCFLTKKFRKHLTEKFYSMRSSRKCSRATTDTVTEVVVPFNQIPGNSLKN

| Molecule | Ki [1] | also measured |
| --- | --- | --- |
| 3-(Morpholinocarbonyl)-5-(2-chlorphenyl)-7,10-dimethyl-3,4-dihydro-2H,7H-cyclopenta[4,5,thieno-[3,2-f]-[1.2.4]triazolo[4.3-a] [1,4]diazepin [(-) 9dB] | 8 nM |  |
| Cc1nnc2n1-c1sc(CCC(=O)N3CCOCC3)cc1C(c1ccccc1Cl)=NC2C (racemic) [Beispiel 1, 2-(Morpholinylcarbonylethyl)-4-(2-chlorphenyl)-6,9-dimethyl-6H-thieno(3,2-f][1,2,4]triazolo[4,3-a][1,4]diazepin] |  | Ki (not stated whether IC50 or Ki, read-out: Affinität zum PAF-Rezeptor): 16 nM |
| Cc1nnc2n1-c1sc(CCC(=O)N3CCOCC3)cc1C(c1ccccc1Cl)=NC2C (single isomer, unassigned) [IB, 2-(Morpholinylcarbonylethyl)-4-(2-chlorphenyl)-6,9-dimethyl-6H-thieno(3,2-f][1,2,4]triazolo[4,3-a][1,4]diazepin] |  | bindet stärker an den PAF-Rezeptor als die (+)-Form (1A) (ratio of binding, (-)-form versus (+)-form of Example 1): 35 mal |
| Cc1nnc2n1-c1sc3c(c1C(c1ccccc1Cl)=NC2C)CC(C(=O)N1CCOCC1)C3 (single isomer, unassigned; (+)) [(+) 9dA] | 400 nM |  |
| Cc1nnc2n1-c1sc3c(c1C(c1ccccc1Cl)=NC2C)CC(C(=O)N1CCOCC1)C3 (single isomer, unassigned; (+)) [(+) 9dB] | 3000 nM |  |
| Cc1nnc2n1-c1sc3c(c1C(c1ccccc1Cl)=NC2C)CC(C(=O)N1CCOCC1)C3 (single isomer, unassigned; (-)) [(-) 9dA] | 70 nM |  |
| Cc1nnc2n1-c1sc3c(c1C(c1ccccc1Cl)=NC2C)CC(C(=O)N1CCOCC1)C3 (stereo not shown) [Beispiel 9d] |  | Ki (33 : 67 mixture of diastereomers, read-out: [^3H]PAF-Bindung: K): 83 nM |
